# Columns and labels:
# [1] = test system: hypoxic-N2a cells; assay: FasL-induced apoptosis in hypoxic N2a cells, Annexin V-PE staining; format: cell-based, mouse; conditions: hypoxic N2a cells treated with FasL, then peptide; for effect on Fas-mediated apoptosis / cell death compared to control: Fig 1B,C, three independent experiments
# Method: Figure 1 The inhibitory effect of FBP or leptin-PEG-FBP (L-P-F) on FasL-induced apoptosis in hypoxic-N2a. (A) Schematic illustration of the L-P-F peptide synthesis. (B,C) The N2a cells were cultured in a hypoxic condition in the presence of membrane-bound soluble FasL (5 nM) for 6 h, as described in the Methods section. The cells were then treated with 300 μM of the indicated peptides for 6 h and examined for Annexin V-PE staining. (B) Representative histograms illustrate the percentage of apoptosis with the peptide treatments, depicting live cells (in black) and apoptotic cells (in red). (C) Bar graph represents the percentage of Annexin V positive cells with the peptide treatments. Normoxia describes cells cultured in normal oxygen conditions. Hypoxia describes cells cultured in hypoxic conditions. The bar graph indicates the average ± SD of three independent experiments. The data in (C) was analyzed using Mann–Whitney U test (* p < 0.05; ns: not-significant). TEXT PRINTED IN THE PICTURE: (B) Mock: Annexin V: 86.4 | (B) ctrl-FBP: Annexin V: 82.0 | (B) Leptin: Annexin V: 83.5 | (B) FBP: Annexin V: 54.0 | (B) L-P-F: Annexin V: 56.5 DOUBTS OF THE COPYIST ABOUT THIS PICTURE: Panel B: the gate numbers have no unit or measure printed beside them; 'Annexin V' comes from the axis label printed once at the edge of the panel. / Panel B, Mock: this is a control treatment, not a substance; it is included because a gate value is printed with it. / Small print in panel B, so these digits are not certain: Mock 86.4, ctrl-FBP 82.0, Leptin 83.5, FBP 54.0, L-P-F 56.5.
# To evaluate the effect of leptin-PEG-FBP on Fas-mediated apoptosis, hypoxic Neuro2a mouse neuroblastoma (N2a) cells were treated with FasL ([…]), followed by a treatment with the peptides indicated in Figure 1B.
# Neuro2a mouse neuroblastoma cells (N2a) were obtained from ATCC (Rockville, MD) and cultured in Dulbecco’s modified Eagle’s medium (DMEM, Gibco) containing 10% fetal bovine serum, penicillin (100 IU/mL), and streptomycin (100 μg/mL). To mimic the in vitro ischemia/reperfusion environment, N2a cells were maintained in a hypoxic condition (94% N2, 5% CO2, 1% O2, 37 °C) in oxygen glucose deprivation media (OGD, Life Technologies, Carlsbad, CA, USA) for 24 h. The cells were then reoxygenated in DMEM supplemented with 10% FBS (5% CO2, 20% O2, 37 °C) for another 24 h and cultured in Dulbecco’s modified Eagle’s medium (DMEM) (Gibco) containing high glucose, supplemented with 10% calf serum and 1% penicillin-streptomycin. To analyze the functional effects of leptin-PEG-FBP, normoxia- and hypoxia-induced N2a cells were seeded in a six-well plate at 2 × 10^5/well with serum-free DMEM and treated with leptin-PEG-FBP at 1 mM for 6 h followed by exposure to a soluble Fas ligand (5 nM). […]
# [2] = test system: Jurkat cells; assay: FasL-mediated apoptosis in Jurkat cells, Annexin V staining (effect of PEG size); format: cell-based; conditions: membrane-bound soluble FasL 20 ng/ml, 3 hr, peptides 300 µM, FasL alone approximately 40% apoptosis, three independent experiments, Fig S1
# Text: In a prior study, we observed that the Fas-blocking peptide (FBP) effectively disrupted Fas–FasL interactions, thereby inhibiting Fas-mediated apoptosis both in vitro and in vivo when delivered intranasally. In this study, we explored the impact of FBP through the clinically relevant systemic route of delivery. To conjugate FBP with leptin, a brain-targeting peptide that effectively penetrates the BBB, we employed polyethylene glycol (PEG) as a linker. We initially evaluated the toxicity of PEG of various sizes in Jurkat cells. The treatment of Jurkat cells with membrane-bound FasL induced approximately 40% apoptosis compared to non-FasL (normal) cells. […] Based on our findings, we conjugated PEG-2K to FBP (PEG-FBP) and then linked it with the leptin peptide. […] (Figure S2). The conjugation schematic is illustrated in Figure 1A.
# Figure S1. Effect of PEGylation length on apoptosis inhibition by FBP peptides. ( A) Apoptosis in Jurkat cells was assessed 3 hr post- treatment with membrane-bound soluble FasL (20 ng/ml), with and without peptides at a concentration of 300 µM using Annexin V staining. (B-C) Bar graphs illustrating the percentage of cells in early (B) and late (C) apoptosis. The compar ison includes non- treated, ctrl- FBP, FBP, and various PEGylated FBP (1K, 2K, 3.4K, 5K, 10K) after FasL treatment in Jurkat cells. […]
# [3] = test system: MCAO rat model; assay: TUNEL assay of brain sections of MCAO rats; format: in vivo; conditions: 48 h post-MCAO
# Method: Ischemic stroke conditions in rat MCAO models lead to brain damage primarily through apoptosis. To assess the therapeutic effects of leptin-PEG-FBP on Fas-mediated apoptosis, we administrated 5 mg/kg of FBP systemically at 3 h and 6 h post-MCAO. At 48 h post-MCAO, we conducted necropsy to estimate the protein levels of Fas and cleaved caspase-3 in the brain samples. Ischemic stroke induced an elevated level of Fas and cleaved caspase-3, similar to the PBS-treated MCAO rats. […] Approximately 52% of cells were TUNEL-positive in the PBS-treated group, 55% in the PEG-FBP, and 47% in the leptin-treated group (Figure 5B). […]
# Figure 5 Leptin-PEG-FBP attenuates apoptosis in the MCAO rat model. […] (A) Representative Western blots and quantification of protein expression for Fas and cleaved caspase-3 in the brain of […] at 48 h post-MCAO. […] (B) Representative microscopy images of TUNEL-stained brain sections (red) and quantification of TUNEL-positive cells in the ischemic region of MCAO after necropsy. (C) Representative microscopy images of cleaved caspase-3-stained brain sections (green) and quantification of positive cells in the ischemic region of MCAO after necropsy. […] Data represent mean ± SD (n = 3 animals per group) and were analyzed using Mann–Whitney U test. […]
# [4] = test system: MCAO rat model; assay: TTC staining, infarction in MCAO rats; format: in vivo; conditions: 5 mg/kg i.v., 48 h post-MCAO, n = 5, PBS group 37%, Fig 6A
# Method: (§1) The induction of apoptosis in the penumbra after MCAO results in brain damage, leading to the formation of infarcts or areas of tissue damage. To examine the impact of leptin-PEG-FBP on brain infraction, we conducted triphenyltetrazolium chloride (TTC) staining at 48 h post-treatment.
# (§2) Figure 6 Improvement of MCAO-induced infarction and histopathological changes with leptin-PEG-FBP treatment. MCAO rats were systemically treated with indicated peptides (5 mg/kg, i.v.) at […]. (A) Brain slices stained with TTC after necropsy. Quantitative analysis of infarction is shown on the right. Data represent mean ± SD (n = 5 animals per group). (B) Images of Nissl-stained brain slices (left) and quantitative analysis of infarction volume on the right. (C) Representative images of hematoxylin and eosin (H&E) brain sections from normal or MCAO-subjected animals after treatment. Data were analyzed using Mann–Whitney U test. Data represent the mean ± SD (* […]; ** p < 0.01; ns: not-significant).
# Pathology in brain tissues was analyzed by staining 2 mm brain slices in 2% 2,3,5-tryphenyltetrazolium chloride (TTC, Sigma Aldrich, St. Louis, MO, USA) for 15 min at 37 °C. The infarcted volume was calculated after fixation using Image J software version 1.54d, as described.
# [5] = test system: MCAO rat model; assay: Nissl staining, infarction volume in MCAO rats; format: in vivo; conditions: 5 mg/kg i.v., 48 h, PBS group around 45%, Fig 6B
# Method: as §1, §2
# Infarcted brain volume was analyzed using Nissl staining. The OCT-embedded brain samples for cryosection were fixed using 4% PFA at room temperature and subjected to 0.1% crystal violet solution following standard protocol. The stained sections were cover-slipped and blindly pictured using full-screening scanner. The infarcted volume was calculated using Image J software version 1.54d.
# [6] = test system: MCAO rat model; assay: H&E histology of brain sections of MCAO rats; format: in vivo; conditions: 5 mg/kg i.v., 48 h, Fig 6C
# Method: as §1, §2
# Rats were sacrificed and perfused with PBS. Brains were carefully removed, embedded in OCT compound (Sakura Finetek, Alphen aan den Rijn, The Netherlands), rapidly cryopreserved in frigid isopentane chilled with liquid nitrogen, and stored at −80 °C until the subsequent sectioning procedure. […]
# [7] = rat, in vivo, iv
# Method: Figure S2. Leptin peptide-mediated brain delivery in rats. Biodistribution (left panel)
# of A647-conjugated peptides delivered intravenous (n=3) in normal rats. Brain, lung,
# liver, spleen and kidney were examined 24 hr post- inoculation. Rats were treated with
# RV -M AT , the control peptide and the leptin peptide. Cumulative data (right panel)
# show relative fluorescence intensities measured in arbitrary pixel values for examined
# tissues. The measurements are compared to the n ormal groupand are based on three
# (1 picture or pasted object on this page, not shown here)
# [8] = mouse, in vivo, iv, 2.5 mg/kg
# Method: To confirm the specificity of leptin-mediated FBP delivery to the brain, we systemically administered Alexa^647-conjugated leptin alone, PEG-FBP, and leptin-PEG-FBP in leptin receptor-deficient db/db mice subjected to photothrombosis (Figure 3A).
# Wildtype and leptin receptor-deficient (db/db) mice were subjected to photothrombotic stroke, followed by administration of the indicated peptides (2.5 mg/kg Alexa^647-labelled peptides, i.v.). Organs were collected at 12 h post-delivery and imaged on Kodak imaging station. (A,B) Representative images and quantification of fluorescence intensities after necropsy. Control mice were inoculated with PBS. Fluorescence intensities measured in arbitrary pixel values were normalized to fluorescence intensities in the PBS-treated group. The data represent mean ± SD (n = 5 per group). The data in (B) were analyzed using Mann–Whitney U test (* p < 0.05; ** p < 0.01).
# (§3) For bio-distribution studies, Alexa^647-conjugated peptides were intravenously (IV) administered at 2.5 mg/kg. […] Fluorescence was analyzed at designated time points. After 12 h inoculation, fluorescence was measured in the brain, lung, liver, spleen, and kidney using image station (Kodak, Stamford, CT, USA).
# [9] = rat, in vivo
# Method: To explore the feasibility of ischemic-specific FBP delivery, we administered Alexa^647-conjugated peptides to a rat middle cerebral artery occlusion (MCAO) ischemic stroke model. The peptides were delivered via the intravenous route (2.5 mg/kg) and the brain and peripheral organs were examined 24 h post-inoculation. […] Next, we conducted an in-depth analysis to validate the localization through confocal microscopy.
# Rats underwent middle cerebral artery occlusion, followed by the administration of the indicated Alexa^647-labelled peptides (2.5 mg/kg, i.v.). Organs were harvested 24 h post-inoculation and imaged on Kodak imaging station. […] Control mice were inoculated with PBS.
# Acute cerebral ischemia was produced using a 1 h occlusion of the right middle cerebral artery (MCAO) in Sprague–Dawley rats weighing 280–320 g (Orient Bio, Seoul, Republic of Korea), as previously described [76]. […]
# as §3
Sequence,decrease in Annexin V positivity upon exposure to FasL ([1]; Fig 1B) [%],effect on Fas-mediated apoptosis / cell death compared to control [1],effect on FasL-mediated apoptosis in Jurkat cells [2],"TUNEL-positive cells in the ischemic region ([3]; 5 mg/kg i.v. at 3 h and 6 h post-MCAO, confocal, n = 3, PBS group 52%, Fig 5B) [%]","change in TUNEL and cleaved caspase-3 positive cells ([3]; 5 mg/kg i.v., Fig 5B,C)","infarction volume, TTC staining [4] [%]","infarction volume, Nissl staining [5] [%]","tissue damage in right hemisphere, H&E staining [6]",delivery to the brain compared to negative control peptide RV-MAT [7],brain delivery in leptin receptor-deficient db/db mice [8],"Alexa647-positive cells in brain sections, confocal microscopy [9]"
YCDEHFCY [FBP],40,significantly reduced cell death,significantly reduced FasL-mediated apoptosis,,,,,,,,
"YCNSTVCY [ctrl-FBP, control FBP peptide YCNSTVCY]",,did not demonstrate a reduction,,,,,,,,,
YQQVLTSLPSQNVLQIANDLENLRDLLHLLGGGC [leptin],,did not demonstrate a reduction,,~47,no significant changes,32,~45,significant damage to the tissue morphology,successful delivery to the brain,did not bind to the brain,strong Alexa^647 positive cells
